Type in all cases: in vivo, male Kunming strain mice
Data set [1] has as its system CCl4 hepatotoxicity in mice. Briefly: Protective action of Clausenamide against CCl4 hepatotoxicity in mice. The note with it: for Liver lipids (X ± SE): control 21.0 ± 4.2; for SGPT (X ± SE): nine mice per group, control 3016 ± 23. The method, then:
(§1) Male Kunming strain mice weighing 18-22 grams were used throughout the experiments. The compounds to be tested were suspended in 5% Tween 80 and given orally by gavage. The vehicle of 5% Tween 80 solution was administered to control mice via the same route. In in vitro experiments, the compounds were dissolved in dimethylformamide and added directly into the incubation mixture.
(§2) The parameters adopted for hepatotoxicity included serum transaminase (SGPT), liver triglycerides, and pathological examination of liver tissues. The liver lesions were scored mainly by the extent of inflammation and necrosis and graded from 0 to 4.
(a) Hepato-protective action
The procedure of experiment of anti-CCl4 hepatotoxicity was the same as described above. The dosages of the active compound used were 125 and 250 mg/kg. […] Liver lipids were not decreased.

Data set [2] deals with CCl4 hepatotoxicity in mice. Description: Therapeutic effect on CCl4 hepatotoxicity in mice. Here is the method: as §1, §2
In another experiment, mice were first injected […] of 0.15% CCl4 in vegetable oil every other day for 3 doses. Treatment of the mice with Clausenamide (250 mg/kg daily) started from the second to fifth day after the first injection of CCl4. The determination of SGPT and pathological examination of liver tissues were performed on day 7 of the experiment.

Data set [3] relates to serum and liver transaminase (GPT). Briefly: Effect on serum and liver transaminase (GPT) levels of normal mice. Here is the method: as §1
Two groups of mice were administered the vehicle or 250 mg/kg of Clausenamide once daily for 7 consecutive days, respectively. The serum and liver GPT were determined 24 h after the last dose administration.

The test system of data set [4] is NADPH-cytochrome c reductase. Briefly: Induction of hepatic microsomal enzymes: NADPH-cytochrome c reductase. Here is the method: as §1
(§3) The liver microsomal cytochrome P-450 plays a key role in the detoxification of xenobiotics. Mice were administered 250 mg/kg of Clausenamide once daily for 3 days. The control mice received the vehicle. The mice were killed after fasting overnight. Liver microsomes were prepared and microsomal monooxygenases were determined.

Data set [5] relates to Aminopyrine demethylase. Briefly: Induction of hepatic microsomal enzymes: aminopyrine demethylase. Here is the method:
as §1, §3

Data set [6] concerns benzo(a)pyrene hydroxylase (AHH). Description: Induction of hepatic microsomal enzymes: benzo(a)pyrene hydroxylase (AHH). The method, then: as §1, §3
Setting [7] is: 250 mg/kg once daily for 3 days.

In the case of `CN1C(=O)[C@@H](O)[C@H](c2ccccc2)[C@@H]1[C@@H](O)c1ccccc1` (relative stereo) [Clausenamide], the “Liver lipids (X ± SE)” value is listed as 21.6 ± 4.4 mg/g liver in data set [1] (125 mg/kg × 2, CCl4) and 13.4 ± 3.0 mg/g liver in data set [1] (250 mg/kg × 2, CCl4). For the same compound, the “SGPT (X ± SE)” value in data set [1] (125 mg/kg × 2, CCl4, P < 0.05) is given as 2365 ± 245 unit %; in data set [1] (250 mg/kg × 2, CCl4, p < 0.01), 1900 ± 257 unit %; in data set [2] (250 mg/kg/day × 4, started after first CCl4 injection, 8 mice, control 2695 ± 110, P <0.01) it was 1718 ± 224 unit %; in data set [3] (normal mice, 250 mg/kg/day × 7, eight mice per group, control 217 ± 7.5, P > 0.05), 252 ± 22.1 unit %. The “Liver lesions: Inflammation grade” value in data set [1] (250 mg/kg × 2, CCl4, graded from 0 to 4, control 1.70) came out at 0.38 grade. For the same compound, in data set [1] (250 mg/kg × 2, CCl4, graded from 0 to 4, control 2.33), the “Liver lesions: Necrosis grade” value was found to be 1.33 grade. Moreover, the “Liver injuries such as inflammation and necrosis, in words” value in data set [1] (250 mg/kg, CCl4) is given as “less severe than those of the control”. The “Elevation of SGPT induced by CCl4, in words” value in data set [1] (125 and 250 mg/kg) is “significantly depressed the elevation of SGPT”. For the same compound, the “Liver lipids, in words” value in data set [1] (CCl4) is “not decreased”. In addition, the “SGPT lowering, in words” value in data set [2] (250 mg/kg daily, second to fifth day after first CCl4 injection) is given as “significant SGPT lowering action”. The “Liver lesions, in words” value in data set [2] (250 mg/kg daily, second to fifth day after first CCl4 injection, day 7) was “no effect on liver lesions”. Further, in data set [3] (250 mg/kg once daily for 7 days), the “SGPT level of normal mice, in words” value is “slightly higher than that of the control, but the difference was not significant”. Also, the “LGPT (X ± SE)” value in data set [3] (normal mice, 250 mg/kg/day × 7, eight mice per group, control 260 ± 11.6, P > 0.05) came to 292 ± 8.0 unit/100 mg. The “NADPH-cytochrome c reductase, in words” value in data set [4] (setting [7]) was “increased significantly”. In addition, the NADPH-cytochrome c reductase in data set [4] (250 mg/kg/day × 3, 6 per group, control 103 ± 2.5) is on record as 117 ± 2.5 nmol cytochrome c reduced/min/. Further, in data set [5] (setting [7]), the “Aminopyrine demethylase, in words” value is “increased significantly”. The Aminopyrine demethylase in data set [5] (250 mg/kg/day × 3, 6 per group, control 81 ± 6.3) came out at 126 ± 5.2 nmol HCHO/min protein. Further, the “Benzo(a)pyrene hydroxylase activity, in words” value in data set [6] (setting [7]) was “increased significantly”. Besides, the AHH in data set [6] (250 mg/kg/day × 3, 6 per group, control 2.6 ± 0.4) was 5.7 ± 0.76 nmol/min/mg protein.

Source of the values: patent US4879390A, “Delta-butyrolactams, thereof, processes for the preparation thereof and their medical use” (priority 1984, dated 1989).
